{
  "source": "patent US10519211B2",
  "about": "“Compounds as peptidic GLP1/glucagon/GIP receptor agonists” (SANOFI, priority 2016, dated 2019)",
  "key": {"[1]": {"tested_on": "female diet-induced obese (DIO) C57BL/6NHsd mice", "assay": "Acute and chronic effects after subcutaneous treatment in female diet-induced obese (DIO) mice", "type": "in vivo, mouse", "conditions": "for Plasma insulin concentrations compared to DIO vehicle / Plasma total cholesterol concentrations compared to DIO vehicle: day 28; for 24 hour blood glucose profile following first treatment: 30 μg/kg s.c., day 1, fed DIO mice, vs DIO control; for Body mass change / Whole body fat mass change / Terminal liver mass (g) / Terminal plasma alanine aminotransferase (U/L) / Terminal plasma insulin (U/L) / Terminal plasma total cholesterol (mmol/L): Table 11, twice-daily 30 μg/kg s.c.; for Body mass change: mean ± SEM; for Whole body fat mass change: QNMR predose vs day 26, mean ± SEM; for Terminal liver mass (g) / Terminal plasma alanine aminotransferase (U/L) / Terminal plasma insulin (U/L) / Terminal plasma total cholesterol (mmol/L): day 28, mean ± SEM", "experimental": "Female C57BL/6NHsd mice were ordered group housed from Envigo RMS Inc., shipped group housed and remained group housed with shipped cage mates in shoebox caging with wood chip bedding until day 38 of the predose phase. At the study start mice were between 25-26 weeks old.\nMice were housed under vivarium conditions that included a 12 h light/dark cycle (light phase 04:00 AM-4:00 PM), room temperatures between 23-26° C. and a relative humidity between 30-70%. All animals had free access to water and a high fat diet (TD97366) for 16 weeks prior to pharmacological intervention (dosing phase). Feed was replaced with fresh feed weekly until and for the last time on day 38 of the predose phase. During the subsequent dosing phase, approximately 50% of the remaining feed were removed, replaced with fresh feed, and pellets were mixed evenly once per week.\nOn predose day 38, obese DIO mice were assigned to treatment groups (n=8) to match mean body masses between all DIO groups. An age-matched group with ad libitum access to a rodent maintenance diet (Teklad Global Diets Rodent 2014, pelleted) was included in the study as a lean control group. In the predosing phase from day 32 through 38, all study animals were treated with vehicle (Phosphate Buffered Saline, PBS, Gibco, without CaCl2 and MgCl2) once daily (s.c. approximately 0.2 mL/mouse).\nOn day 37 of the predose phase, the test article was diluted with PBS to a concentration of 100 μg/mL and aliquots of this stock solution were stored at approximately ≤−60° C. Stock aliquots were thawed for weekly use and thereafter stored in a refrigerator at approximately 4° C. The injected test article solution was prepared fresh once on each dosing day by diluting stock solution with PBS to achieve the desired concentration.\nMice were treated twice daily with a s.c. injection of PBS-vehicle or the test article for 28 days. The morning dosing was initiated and completed between 06:00 and 07:30 AM and the afternoon dosing between 2:00 and 3:30 PM. On day 28 of the dosing phase only the morning dose was administered. The applied volume was 5 ml/kg and the dose was adjusted to the most recent body mass recording of each individual.\nAnimals had unlimited access to water and feed during the experiment. On day 1 of the dosing phase approximately 5 μL of blood were collected via tail clips at hour 0, prior to the first s.c. dose of PBS-vehicle or test-article as well as 1, 2, 3, 4, 6, and 24 hours post-dose. Animals received the second s.c. dose of PBS-vehicle or test-article 8 hours after the first dose. The 24 hour blood collection of the blood glucose profile was performed prior to dosing on day 2. Glucose measurements were performed in whole blood and in duplicate or triplicate using Aviva glucometers.\nBody mass was measured daily approximately between 06:00-07:30 AM from day 32 through 38 of the predosing phase and throughout the 28 days of the dosing phase. During the dosing phase mice were treated twice daily with either a s.c. injection of PBS-vehicle or test article.\nTo determine whole body fat mass Quantitative Nuclear Magnetic Resonance (QNMR) measurements were performed on predosing day 37 and on day 26 of the dosing phase. During the dosing phase mice were treated twice daily with either a s.c. injection of PBS-vehicle or test article.\nOn day 28 blood was collected prior to any other inlife activities for determination of plasma insulin concentrations. Then the morning dose was administered and necropsy was performed 4 hours post-dose. For this purpose animals were anesthetized with isoflurane and blood was collected by orbital bleeding.\nOn day 28 and 4 hours after the morning dose, blood was collected from mice under isoflurane anesthesia as described above. Then mice were killed and livers were collected and weighed.\nData are depicted as means±SEM. […] A One-Way ANOVA and Tukey Test were used for pairwise multiple comparisons of all groups (n=8/group, deviations from group size are indicated). […]"}, "[2]": {"biological_target": "T1, human GLP-1 receptor (hGLP-1 R) (Homo sapiens, UniProt P43220)", "T1 construct": "expressed in transfected cells; host or cells: HEK-293", "T1 sequence (P43220 24-463)": "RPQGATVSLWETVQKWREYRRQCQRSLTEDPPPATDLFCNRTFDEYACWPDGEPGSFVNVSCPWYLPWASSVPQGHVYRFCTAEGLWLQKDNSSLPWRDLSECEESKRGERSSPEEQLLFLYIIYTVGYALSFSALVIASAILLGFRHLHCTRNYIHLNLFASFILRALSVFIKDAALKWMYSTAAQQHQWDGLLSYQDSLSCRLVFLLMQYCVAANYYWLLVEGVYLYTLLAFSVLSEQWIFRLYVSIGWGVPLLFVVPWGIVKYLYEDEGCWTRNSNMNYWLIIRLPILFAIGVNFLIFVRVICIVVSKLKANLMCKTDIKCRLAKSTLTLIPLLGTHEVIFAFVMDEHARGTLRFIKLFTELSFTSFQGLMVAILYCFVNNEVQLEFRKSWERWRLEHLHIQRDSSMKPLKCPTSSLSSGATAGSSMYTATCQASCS", "assay": "cAMP response (HTRF) of HEK-293 cells stably expressing human GLP-1 receptor", "type": "cell-based", "conditions": "Table 8; cAMP formation", "experimental": "cAMP content of cells was determined using a kit from Cisbio Corp. (cat. no. 62AM4PEJ) based on HTRF (Homogenous Time Resolved Fluorescence). For preparation, cells were split into T175 culture flasks and grown overnight to near confluency in medium (DMEM/10% FBS). Medium was then removed and cells washed with PBS lacking calcium and magnesium, followed by proteinase treatment with accutase (Sigma-Aldrich cat. no. A6964). Detached cells were washed and resuspended in assay buffer (1×HBSS; 20 mM HEPES, 0.1% BSA, 2 mM IBMX) and cellular density determined. They were then diluted to 400000 cells/ml and 25 μl-aliquots dispensed into the wells of 96-well plates. For measurement, 25 μl of test compound in assay buffer was added to the wells, followed by incubation for 30 minutes at room temperature.\nPotencies of peptidic compounds at the GLP-1, glucagon and GIP receptors were determined by exposing cells expressing human glucagon receptor (hGlucagon R), human GIP receptor (hGIP-R) or human GLP-1 receptor (hGLP-1 R) to the listed compounds at increasing concentrations and measuring the formed cAMP as described in Methods."}, "[3]": {"conditions": "30 μg/kg s.c. twice daily, 28 days, in words"}, "[4]": {"conditions": "30 μg/kg s.c. twice daily, in words"}},
  "note": "Numbered stars: 1 amine (or outer) side, 2 acyl side, 3 side chain; on linkers, the order of the positions; unused ones are H or OH. Square brackets hold non-standard residues; d marks the D form. Side chains are listed from the residue outwards. Peptide text beside a SMILES is read from it. * marks the point of attachment. γGlu = O=C(O)[C@H](CCC(=O)[*:2])N[*:1]; Palmitoyl = CCCCCCCCCCCCCCCC(=O)*; Aib = CC(C)(N)C(=O)O",
  "data": [
    {"compound": "CCCCCCCCCCCCCCCC(=O)N[C@@H](CCC(=O)N[C@@H](CCC(=O)NCCCC[C@H](NC(=O)[C@H](CC(C)C)NC(=O)[C@H](CCCCN)NC(=O)[C@H](CO)NC(=O)[C@H](CC(C)C)NC(=O)[C@H](CC(=O)O)NC(=O)[C@H](CO)NC(=O)[C@@H](NC(=O)[C@H](Cc1ccccc1)NC(=O)[C@@H](NC(=O)CNC(=O)[C@H](CCC(N)=O)NC(=O)C(C)(C)NC(=O)[C@@H](N)Cc1c[nH]cn1)[C@@H](C)O)[C@@H](C)O)C(=O)N[C@@H](CCC(=O)O)C(=O)N[C@@H](CCC(=O)O)C(=O)N[C@@H](CCC(N)=O)C(=O)N[C@@H](CCCNC(=N)N)C(=O)N[C@@H](CCC(N)=O)C(=O)NC(C)(C)C(=O)N[C@@H](CCC(=O)O)C(=O)N[C@@H](Cc1ccccc1)C(=O)N[C@H](C(=O)N[C@@H](CCC(=O)O)C(=O)N[C@@H](Cc1c[nH]c2ccccc12)C(=O)N[C@@H](CC(C)C)C(=O)N[C@@H](CCCCN)C(=O)N[C@@H](C)C(=O)N[C@H](C)C(=O)NCC(=O)N1CCC[C@H]1C(=O)N1CCC[C@H]1C(=O)N[C@@H](CO)C(=O)NC(C)(C)C(=O)N[C@@H](CCCCN)C(=O)N1CCC[C@H]1C(=O)N1CCC[C@H]1C(=O)N1CCC[C@H]1C(=O)N[C@@H](CCCCN)C(N)=O)[C@@H](C)CC)C(=O)O)C(=O)O", "note": "[SEQ ID NO: 10, H-Aib-Q-G-T-F-T-S-D-L-S-K-L-K[gGlu-gGlu-Palm]-E-E-Q-R-Q-Aib-E-F-I-E-W-L-K-A-dAla-G-P-P-S-Aib-K-P-P-P-K-NH2] (H-H[Aib]QGTFTSDLSKLK([γGlu-γGlu-Palmitoyl])EEQRQ[Aib]EFIEWLKA[dA]GPPS[Aib]KPPPK-NH2)", "values": [
      {"measurement": "Body mass compared to the DIO-Vehicle group", "setting": "[1]; [3]", "result": "statistically significant decrease in body mass"},
      {"measurement": "Plasma insulin concentrations compared to DIO vehicle", "setting": "[1]; [4]", "result": "statistically significant reduction in plasma insulin concentrations"},
      {"measurement": "Plasma total cholesterol concentrations compared to DIO vehicle", "setting": "[1]; [4]", "result": "statistically significant reduction in plasma total cholesterol concentrations"},
      {"measurement": "Liver mass on day 28 compared to DIO animals treated with vehicle", "setting": "[1]; [4]", "result": "statistically significantly lower liver mass"},
      {"measurement": "Plasma alanine aminotransferase concentration on day 28 compared to DIO vehicle", "setting": "[1]; [4]", "result": "statistically significantly lower plasma alanine aminotransferase concentration"},
      {"measurement": "24 hour blood glucose profile following first treatment", "setting": "[1]; in words", "result": "decrease in blood glucose concentrations below concentrations observed in DIO control mice"},
      {"measurement": "Body mass change", "setting": "[1]; 28 days", "result": "-7.14 ± 0.64", "unit": "g"},
      {"measurement": "Whole body fat mass change", "setting": "[1]", "result": "-6.48 ± 0.90", "unit": "g"},
      {"measurement": "Terminal liver mass (g)", "setting": "[1]", "result": "+1.07 ± 0.04 g"},
      {"measurement": "Terminal plasma alanine aminotransferase (U/L)", "setting": "[1]", "result": "+56.75 ± 4.65 U/L"},
      {"measurement": "Terminal plasma insulin (U/L)", "setting": "[1]", "result": "+35.81 ± 2.79 U/L"},
      {"measurement": "Terminal plasma total cholesterol (mmol/L)", "setting": "[1]", "result": "+4.28 ± 0.15 mmol/L"},
      {"measurement": "EC50", "setting": "[2]", "result": 2.4, "unit": "pM"}
    ]},
    {"compound": "CCCCCCCCCCCCCCCC(=O)N[C@@H](CCC(=O)N[C@@H](CCC(=O)NCCCC[C@H](NC(=O)[C@H](CC(C)C)NC(=O)[C@H](CCCCN)NC(=O)[C@H](CO)NC(=O)[C@H](CC(C)C)NC(=O)[C@H](CC(=O)O)NC(=O)[C@H](CO)NC(=O)[C@@H](NC(=O)[C@H](Cc1ccccc1)NC(=O)[C@@H](NC(=O)CNC(=O)[C@H](CCC(N)=O)NC(=O)C(C)(C)NC(=O)[C@@H](N)Cc1c[nH]cn1)[C@@H](C)O)[C@@H](C)O)C(=O)N[C@@H](CCC(=O)O)C(=O)N[C@@H](CCC(=O)O)C(=O)N[C@@H](CCC(N)=O)C(=O)N[C@@H](CCCNC(=N)N)C(=O)N[C@@H](CCC(N)=O)C(=O)NC(C)(C)C(=O)N[C@@H](CCC(=O)O)C(=O)N[C@@H](Cc1ccccc1)C(=O)N[C@H](C(=O)N[C@@H](CCC(=O)O)C(=O)N[C@@H](Cc1c[nH]c2ccccc12)C(=O)N[C@@H](CC(C)C)C(=O)N[C@@H](CCCCN)C(=O)N[C@@H](C)C(=O)NCC(=O)NCC(=O)N1CCC[C@H]1C(=O)N1CCC[C@H]1C(=O)N[C@@H](CO)C(=O)NC(C)(C)C(=O)N[C@@H](CCCCN)C(=O)N1CCC[C@H]1C(=O)N1CCC[C@H]1C(=O)N1CCC[C@H]1C(=O)N[C@@H](CCCCN)C(N)=O)[C@@H](C)CC)C(=O)O)C(=O)O", "note": "[SEQ ID NO: 9, H-Aib-Q-G-T-F-T-S-D-L-S-K-L-K[gGlu-gGlu-Palm]-E-E-Q-R-Q-Aib-E-F-I-E-W-L-K-A-G-G-P-P-S-Aib-K-P-P-P-K-NH2]", "values": [
      {"measurement": "Body mass compared to the DIO-Vehicle group", "setting": "[1]; [3]", "result": "statistically significant decrease in body mass"},
      {"measurement": "Whole body fat mass compared to the DIO-Vehicle group", "setting": "[1]; [3]", "result": "statistically significantly reduction in whole body fat mass"},
      {"measurement": "Plasma insulin concentrations compared to DIO vehicle", "setting": "[1]; [4]", "result": "statistically significant reduction in plasma insulin concentrations"},
      {"measurement": "Plasma total cholesterol concentrations compared to DIO vehicle", "setting": "[1]; [4]", "result": "statistically significant reduction in plasma total cholesterol concentrations"},
      {"measurement": "Liver mass on day 28 compared to DIO animals treated with vehicle", "setting": "[1]; [4]", "result": "statistically significantly lower liver mass"},
      {"measurement": "Plasma alanine aminotransferase concentration on day 28 compared to DIO vehicle", "setting": "[1]; [4]", "result": "statistically significantly lower plasma alanine aminotransferase concentration"},
      {"measurement": "24 hour blood glucose profile following first treatment", "setting": "[1]; in words", "result": "decrease in blood glucose concentrations below concentrations observed in DIO control mice"},
      {"measurement": "Body mass change", "setting": "[1]; 28 days", "result": "-10.03 ± 2.33", "unit": "g"},
      {"measurement": "Whole body fat mass change", "setting": "[1]", "result": "-5.29 ± 2.32", "unit": "g"},
      {"measurement": "Terminal liver mass (g)", "setting": "[1]", "result": "+1.11 ± 0.06 g"},
      {"measurement": "Terminal plasma alanine aminotransferase (U/L)", "setting": "[1]", "result": "+57.13 ± 7.33 U/L"},
      {"measurement": "Terminal plasma insulin (U/L)", "setting": "[1]", "result": "+38.95 ± 7.30 U/L"},
      {"measurement": "Terminal plasma total cholesterol (mmol/L)", "setting": "[1]", "result": "+3.97 ± 0.12 mmol/L"}
    ]}
  ]
}
